{"source": "patent US20100016288A1", "about": "(priority 2008, published 2010)", "molecular_target": "T1, alpha7 nicotinic acetylcholine receptor (Rattus norvegicus, UniProt Q05941)", "T1 construct": "expressed in transfected cells", "T1 sequence (Q05941 23-502)": "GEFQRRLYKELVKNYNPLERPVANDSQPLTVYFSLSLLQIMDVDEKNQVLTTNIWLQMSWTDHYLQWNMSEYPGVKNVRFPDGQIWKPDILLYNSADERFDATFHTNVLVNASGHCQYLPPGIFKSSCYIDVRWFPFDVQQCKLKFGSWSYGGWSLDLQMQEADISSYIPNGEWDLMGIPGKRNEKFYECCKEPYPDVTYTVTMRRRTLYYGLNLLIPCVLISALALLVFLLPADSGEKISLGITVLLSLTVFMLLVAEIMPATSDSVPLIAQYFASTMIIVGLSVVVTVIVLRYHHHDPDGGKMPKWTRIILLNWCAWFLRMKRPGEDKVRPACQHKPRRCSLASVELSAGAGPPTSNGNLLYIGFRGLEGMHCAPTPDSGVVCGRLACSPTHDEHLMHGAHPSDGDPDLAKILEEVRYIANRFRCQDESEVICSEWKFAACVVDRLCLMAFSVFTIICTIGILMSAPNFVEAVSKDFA", "type": "cell-based", "settings": "agonist concentration-response 0.001 to 30 microM; rat alpha7 nAChR in GH4C1 cells; assay validation", "source_text": "Rat GH4C1 cells were then transfected with the rat receptor, cloned and analyzed for functional alpha7 nicotinic receptor expression employing a FLIPR assay to measure changes in intracellular calcium concentrations. […] Three cell lines were then expanded and one characterised pharmacologically (see Table 2 below) prior to its subsequent use for compound screening.\nThe FLIPR system allows the measurements of real time Ca^2+-concentration changes in living cells using a Ca^2+ sensitive fluorescence dye (such as Fluo4). This instrument enables the screening for agonists and antagonists for alpha 7 nAChR channels stably expressed in GH4C1 cells.\nGH4C1 cells stably transfected with rat-alphα7-nAChR (see above) were used. These cells are poorly adherent and therefore pretreatment of flasks and plates with poly-D-lysine was carried out. Cells are grown in 150 cm^2 T-flasks, filled with 30 ml of medium at 37° C. and 5% CO2.\nEC50 and IC50 values were calculated using the IDBS XLfit4.1 software package employing a sigmoidal concentration-response (variable slope) equation:\nThe compounds were tested using the functional FLIPR primary screening assay employing the stable recombinant GH4C1 cell line expressing the alpha7 nAChR. Hits identified were validated further by generation of concentration-response curves."}
{"compound": "C[N+]1(C)CCN(c2ccccc2)CC1", "note": "[DMPP]", "values": [{"measurement": "EC50", "value": "980 ± 470", "unit": "nM"}]}
